Experimental data as given in US20260199564A1, “METHOD OF PREVENTING BLOOD COAGULATION AND DRUG-ELUTING IMPLANT FOR PERCUTANEOUS CORONARY INTERVENTION” (priority 2023, published 2026).

Key:
TNF-α = test: LPS-induced TNF-α expression in HUVECs; assay type: cell-based, human; conditions: 1, 3, 10 μM for 1 h prior to LPS (1 μg/ml) stimulation for 24 h
Description: (§1) HUVECs were treated for 1 h with ginsenoside CK (1 μM, 3 μM, and 10 μM) prior to LPS (1 μg/ml) stimulation for 24 h (A) IL-6 (B) TNF-αexpression. Values are means±SEM of 3 independent experiments. Statistical significance assessed by one-way ANOVA followed by Scheffe post-hoc test for multiple comparisons (***P<0.01, *P<0.05 vs LPS).
(§2) Treatment of HUVECs with LPS (1 μg/ml) increased IL-6 and TNF-αexpression. To determine whether LPS-induced IL-6 and TNF-αexpression was affected by ginsenoside CK, HUVECs were treated for 1 h with ginsenoside CK (1 μM, 3 μM, and 10 μM) prior to LPS (1 μg/ml) stimulation for 24 h.

CYP2C8 = molecular target: T1, CYP2C8 (Homo sapiens, UniProt P10632); test: Cytochrome P450 inhibition in human liver microsomes using LC-MS/MS, CYP2C8; assay type: in vitro ADME
T1 construct: with pooled human liver microsomes; from tissue; host or cells: pooled human liver microsomes
T1 sequence (P10632 1-490): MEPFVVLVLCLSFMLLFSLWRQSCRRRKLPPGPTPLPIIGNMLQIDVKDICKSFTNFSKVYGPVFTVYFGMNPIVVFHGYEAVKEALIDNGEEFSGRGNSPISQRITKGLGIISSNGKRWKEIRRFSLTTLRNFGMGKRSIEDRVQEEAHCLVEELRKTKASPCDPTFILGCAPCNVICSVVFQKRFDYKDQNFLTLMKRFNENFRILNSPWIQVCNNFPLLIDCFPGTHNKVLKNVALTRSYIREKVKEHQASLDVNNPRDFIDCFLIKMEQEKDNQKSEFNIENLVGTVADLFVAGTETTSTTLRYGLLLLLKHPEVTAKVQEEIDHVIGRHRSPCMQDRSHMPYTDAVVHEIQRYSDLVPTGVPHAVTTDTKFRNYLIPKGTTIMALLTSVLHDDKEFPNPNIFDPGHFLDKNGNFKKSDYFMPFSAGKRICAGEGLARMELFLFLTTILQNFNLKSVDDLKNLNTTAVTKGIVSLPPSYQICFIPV
Description: (§3) In IC50 shift experiments, CK (0.2 μL prepared in DMSO) was pre-incubated for 30 min at 37° C., at 8 different concentrations, with pooled human liver microsomes (0.1-1 mg/mL, depending on which enzyme was assessed) in the absence or presence of 1 mM NADPH in 100 μL of potassium phosphate buffer (100 mM, pH 7.4) and MgCl2 (2.5 mM). After the pre-incubation, a substrate mixture containing a probe substrate in 100 μL of potassium phosphate buffer (100 mM, pH 7.4), MgCl2 (2.5 mM), and NADPH (1 mM) was added for measurement of the corresponding P450 activities. Incubations were terminated by addition of 200 μL methanol. Samples were then extracted and centrifuged and the supernatant was subjected to validated LC-MS/MS analysis.

CYP1A2 = molecular target: T2, CYP1A2 (Homo sapiens, UniProt P05177); test: Cytochrome P450 inhibition in human liver microsomes using LC-MS/MS, CYP1A2; assay type: in vitro ADME
T2 construct: with pooled human liver microsomes; from tissue; host or cells: pooled human liver microsomes
T2 sequence (P05177 1-516): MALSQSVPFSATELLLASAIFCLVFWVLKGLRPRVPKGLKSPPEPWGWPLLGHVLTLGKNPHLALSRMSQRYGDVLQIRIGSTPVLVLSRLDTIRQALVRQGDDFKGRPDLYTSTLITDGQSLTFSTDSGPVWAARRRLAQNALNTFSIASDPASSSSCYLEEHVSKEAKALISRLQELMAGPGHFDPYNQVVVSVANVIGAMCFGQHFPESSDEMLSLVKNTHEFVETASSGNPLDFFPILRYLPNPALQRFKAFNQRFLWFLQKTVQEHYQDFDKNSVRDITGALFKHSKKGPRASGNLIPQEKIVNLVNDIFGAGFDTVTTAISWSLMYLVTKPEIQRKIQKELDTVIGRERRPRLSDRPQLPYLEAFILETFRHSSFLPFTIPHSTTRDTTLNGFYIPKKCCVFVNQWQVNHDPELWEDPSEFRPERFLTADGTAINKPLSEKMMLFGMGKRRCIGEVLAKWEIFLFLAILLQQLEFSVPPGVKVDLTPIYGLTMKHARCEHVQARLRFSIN
Description: as §3

CYP3A4 = molecular target: T3, CYP3A4 (Homo sapiens, UniProt P08684); test: Cytochrome P450 inhibition in human liver microsomes using LC-MS/MS, CYP3A4; assay type: in vitro ADME; conditions: for IC50 shift (fold difference): ratio of IC50 with −NADPH to IC50 with +NADPH in the 30 min pre-incubation; for IC50: pooled human liver microsomes
T3 construct: with pooled human liver microsomes; from tissue; host or cells: pooled human liver microsomes
T3 sequence (P08684 whole entry): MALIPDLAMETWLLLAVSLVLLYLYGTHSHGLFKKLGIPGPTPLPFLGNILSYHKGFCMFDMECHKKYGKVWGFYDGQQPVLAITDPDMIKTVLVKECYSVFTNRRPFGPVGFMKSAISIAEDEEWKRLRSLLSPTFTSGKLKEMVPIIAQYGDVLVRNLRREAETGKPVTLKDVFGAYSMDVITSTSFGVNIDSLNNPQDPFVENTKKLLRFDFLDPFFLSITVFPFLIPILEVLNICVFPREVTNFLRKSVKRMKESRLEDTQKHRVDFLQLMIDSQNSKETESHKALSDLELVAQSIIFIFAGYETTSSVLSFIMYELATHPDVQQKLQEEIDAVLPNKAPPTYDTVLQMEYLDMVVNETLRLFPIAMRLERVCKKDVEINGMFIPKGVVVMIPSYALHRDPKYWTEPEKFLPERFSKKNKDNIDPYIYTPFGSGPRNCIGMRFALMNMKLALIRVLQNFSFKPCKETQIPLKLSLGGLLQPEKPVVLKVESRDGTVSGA
Description: as §3

CYP2C9 = molecular target: T4, CYP2C9 (Homo sapiens, UniProt P11712); test: Cytochrome P450 inhibition in human liver microsomes using LC-MS/MS, CYP2C9; assay type: in vitro ADME
T4 construct: with pooled human liver microsomes; from tissue; host or cells: pooled human liver microsomes
T4 sequence (P11712 whole entry): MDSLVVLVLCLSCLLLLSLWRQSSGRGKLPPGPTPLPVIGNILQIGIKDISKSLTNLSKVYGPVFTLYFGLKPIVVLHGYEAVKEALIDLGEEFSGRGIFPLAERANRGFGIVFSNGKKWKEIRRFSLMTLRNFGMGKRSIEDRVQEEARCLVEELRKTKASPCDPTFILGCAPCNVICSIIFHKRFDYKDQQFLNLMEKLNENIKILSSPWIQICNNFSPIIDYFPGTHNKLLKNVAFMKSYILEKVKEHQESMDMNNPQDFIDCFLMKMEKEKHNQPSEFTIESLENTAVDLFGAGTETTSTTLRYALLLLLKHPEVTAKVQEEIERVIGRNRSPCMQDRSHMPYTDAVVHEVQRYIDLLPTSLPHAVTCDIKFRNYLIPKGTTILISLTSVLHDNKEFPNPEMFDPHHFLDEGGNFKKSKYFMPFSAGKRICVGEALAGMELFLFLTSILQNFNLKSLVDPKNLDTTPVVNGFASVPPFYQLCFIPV
Description: as §3

IL-6 = test: LPS-induced IL-6 expression in HUVECs; assay type: cell-based, human; conditions: 1, 3, 10 μM for 1 h prior to LPS (1 μg/ml) stimulation for 24 h
Description: as §1, §2

CYP2C19 = molecular target: T5, CYP2C19 (Homo sapiens, UniProt P33261); test: Cytochrome P450 inhibition in human liver microsomes using LC-MS/MS, CYP2C19; assay type: in vitro ADME
T5 construct: with pooled human liver microsomes; from tissue; host or cells: pooled human liver microsomes
T5 sequence (P33261 whole entry): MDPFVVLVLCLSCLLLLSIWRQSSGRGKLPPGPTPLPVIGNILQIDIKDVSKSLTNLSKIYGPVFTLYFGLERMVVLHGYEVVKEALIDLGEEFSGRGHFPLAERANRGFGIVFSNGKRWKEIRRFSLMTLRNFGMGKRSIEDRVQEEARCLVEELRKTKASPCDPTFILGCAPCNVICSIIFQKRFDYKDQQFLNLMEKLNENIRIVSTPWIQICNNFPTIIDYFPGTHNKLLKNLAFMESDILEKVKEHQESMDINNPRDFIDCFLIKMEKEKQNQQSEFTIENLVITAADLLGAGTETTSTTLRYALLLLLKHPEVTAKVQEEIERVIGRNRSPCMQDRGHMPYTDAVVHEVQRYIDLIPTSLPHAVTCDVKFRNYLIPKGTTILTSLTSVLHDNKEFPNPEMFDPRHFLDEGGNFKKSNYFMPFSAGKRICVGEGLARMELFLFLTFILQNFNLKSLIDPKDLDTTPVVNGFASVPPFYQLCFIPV
Description: as §3

CYP2D6 = molecular target: T6, CYP2D6 (Homo sapiens, UniProt P10635); test: Cytochrome P450 inhibition in human liver microsomes using LC-MS/MS, CYP2D6; assay type: in vitro ADME
T6 construct: with pooled human liver microsomes; from tissue; host or cells: pooled human liver microsomes
T6 sequence (P10635 whole entry): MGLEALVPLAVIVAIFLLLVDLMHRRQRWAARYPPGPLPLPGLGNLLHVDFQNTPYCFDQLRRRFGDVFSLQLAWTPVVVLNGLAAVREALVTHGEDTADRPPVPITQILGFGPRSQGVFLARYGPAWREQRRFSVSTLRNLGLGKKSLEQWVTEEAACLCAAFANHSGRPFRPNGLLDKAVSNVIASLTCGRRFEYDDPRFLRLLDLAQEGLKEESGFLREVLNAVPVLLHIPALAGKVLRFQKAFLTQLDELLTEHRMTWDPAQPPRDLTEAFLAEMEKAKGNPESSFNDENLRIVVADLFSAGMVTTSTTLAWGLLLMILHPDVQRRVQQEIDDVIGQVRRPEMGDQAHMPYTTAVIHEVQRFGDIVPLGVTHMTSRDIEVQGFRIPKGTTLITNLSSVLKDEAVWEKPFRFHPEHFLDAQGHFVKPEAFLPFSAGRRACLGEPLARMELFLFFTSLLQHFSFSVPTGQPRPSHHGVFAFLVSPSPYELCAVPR
Description: as §3

[1] = Releasing kinetics of ginsenoside CK from two-layer coated balloon (CK DEB), FIG. 4; assay type: physicochemical
ICAM-1 = test: LPS-induced ICAM-1 mRNA expression in HUVECs; assay type: cell-based, human; conditions: 1, 3, 10 μM for 1 h prior to LPS (1 μg/ml) stimulation for 24 h
Description: as §1, with “24 h.” for “24 h”, “(A) ICAM-1” for “(A) IL-6”, “(B) VCAM-1 mRNA expression.” for “(B) TNF-αexpression.”
Treatment of HUVECs with LPS (1 μg/ml) increased ICAM-1 and VCAM-1 mRNA expression. Twenty-four hours after LPS treatment, maximal expression of ICAM-1 and VCAM-1 was attained. To determine whether LPS-stimulated ICAM-1 and VCAM-1 mRNA expression is affected by ginsenoside CK, HUVECs were treated for 1 h with ginsenoside CK (1 μM, 3 μM, and 10 μM) prior to LPS (1 μg/ml) stimulation for 24 h.

[2] = Releasing kinetics of ginsenoside CK from three-layer coated stent (CK DES), FIG. 2; assay type: physicochemical
[3] = 50 μM, 30 min pre-incubation in the presence or absence of NADPH

Q: Which “LPS-induced TNF-α expression” value (TNF-α) does the source give for CC(C)=CCC[C@](C)(O[C@@H]1O[C@H](CO)[C@@H](O)[C@H](O)[C@H]1O)[C@H]1CC[C@]2(C)[C@@H]1[C@H](O)C[C@@H]1[C@@]3(C)CC[C@H](O)C(C)(C)[C@@H]3CC[C@]12C [CK, Ginsenoside compound K] here?
A: significantly decreased

Q: And the “inhibition at concentration of 50 μM” value (CYP2C8; [3])?
A: did not inhibit

Q: And the IC50 (CYP2C8; pooled human liver microsomes, substrate Amodiaquine)?
A: > 50 µM

Q: What about the “inhibition at concentration of 50 μM” value (CYP1A2; [3]) of the same compound?
A: did not inhibit

Q: What about the IC50 (CYP1A2; pooled human liver microsomes, substrate Phenacetin) of the same compound?
A: > 50 µM

Q: What about the “IC50 shift (fold difference)” value (CYP3A4; CYP3A4(M), midazolam as substrate) of the same compound?
A: 0.98 fold

Q: What about the “IC50 shift (fold difference)” value (CYP3A4; CYP3A4(T), testosterone as substrate) of the same compound?
A: 1.06 fold

Q: And the IC50 (CYP3A4; substrate Midazolam)?
A: 9.76 µM

Q: And the IC50 (CYP3A4; substrate Testosterone)?
A: 13.9 µM

Q: And the “inhibition at concentration of 50 μM” value (CYP2C9; [3])?
A: did not inhibit

Q: What about the IC50 (CYP2C9; pooled human liver microsomes, substrate Diclofenac) of the same compound?
A: > 50 µM

Q: And the “LPS-induced IL-6 expression” value (IL-6)?
A: significantly decreased

Q: What about the “inhibition at concentration of 50 μM” value (CYP2C19; [3]) of the same compound?
A: did not inhibit

Q: What about the IC50 (CYP2C19; pooled human liver microsomes, substrate S-Mephenytoin) of the same compound?
A: > 50 µM

Q: What about the “inhibition at concentration of 50 μM” value (CYP2D6; [3]) of the same compound?
A: did not inhibit

Q: And the IC50 (CYP2D6; pooled human liver microsomes, substrate Dextromethorphan)?
A: > 50 µM

Q: And the “amount of residual drug” value ([1]; after 90 days of drug release)?
A: beyond the detection/quantitation limit

Q: What about the “drug released (initial burst)” value ([1]; within one month) of the same compound?
A: ~80%

Q: And the “LPS-stimulated ICAM-1 mRNA expression” value (ICAM-1)?
A: significantly inhibited

Q: And the “amount of residual drug in the stent” value ([2]; after 90 days of drug release)?
A: beyond the detection/quantitation limit

Q: What about the “drug released (initial burst)” value ([2]; within one month) of the same compound?
A: ~80%
